Assay results reported in paper PMC8528861, “Structural and functional analysis of target recognition by the lymphocyte adaptor protein LNK” (Nature Communications, 2021).

Columns and labels:
Test in all cases: Thermostability assay
Conditions in all cases: for delta Tm / Tm, plus phosphotyrosine: 10 mM phosphotyrosine; for delta Tm: relative to apo Tm; for Tm, plus phosphotyrosine: protein 30 μM in PBS; for Tm: protein 100 μM, peptide five-fold molar excess, phenyl phosphate 8 mM
V374M LNK SH2 domain = format: binding, mouse
Description: (§1) Using mouse SH2 domain equivalents of these variants we investigated whether the incorporation of these mutations affected protein stability by measuring their melting point (Tm).
(§2) For peptide and phenyl phosphate experiments, proteins were desalted into 100 mM NaCl, 20 mM Tris (pH 8.0), 2 mM TCEP buffer and diluted to 100 μM. Where peptides were used, a five-fold molar excess of peptide was added to each sample, in phenyl phosphate conditions concentration was 8 mM. For experiments were phosphotyrosine, proteins were diluted to 30 μM in PBS and in phosphate conditions, concentration was 10 mM. Ten mcroliter of each sample was transferred into a capillary and measured from 35 to 95 °C using a Tycho N6T (Nanotemper). Data were analyzed in Prism.

R387H LNK SH2 domain = molecular target: T1, R387H LNK SH2 domain (Mus musculus, UniProt O09039, R387H); format: binding
T1 construct: DNA encoding the mouse LNK SH2 domain (residues 324–446) and an N-terminal NusA; NusA (N, cleaved yes); made in house; host or cells: E. coli
Description: as §1, §2

R387C LNK SH2 domain = molecular target: T2, R387C LNK SH2 domain (Mus musculus, UniProt O09039, R387C); format: binding
T2 construct: DNA encoding the mouse LNK SH2 domain (residues 324–446) and an N-terminal NusA; NusA (N, cleaved yes); made in house; host or cells: E. coli
Description: as §1, §2

WT LNK SH2 domain = molecular target: T3, WT LNK SH2 domain (Mus musculus, UniProt O09039); format: binding
T3 construct: DNA encoding the mouse LNK SH2 domain (residues 324–446) and an N-terminal NusA; NusA (N, cleaved yes); made in house; host or cells: E. coli (tuner (DE3), BL21(DE3) or C43)
Description: as §1, §2

T2 sequence (O09039 324-446 R387C): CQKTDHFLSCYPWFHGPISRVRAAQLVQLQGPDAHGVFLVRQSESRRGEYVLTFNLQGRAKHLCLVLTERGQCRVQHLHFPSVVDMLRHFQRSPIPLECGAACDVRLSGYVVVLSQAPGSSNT
T3 sequence (O09039 324-446): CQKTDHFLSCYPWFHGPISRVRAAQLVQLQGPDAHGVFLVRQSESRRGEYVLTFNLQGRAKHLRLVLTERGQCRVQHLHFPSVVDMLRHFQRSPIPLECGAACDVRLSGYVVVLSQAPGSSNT
T1 sequence (O09039 324-446 R387H): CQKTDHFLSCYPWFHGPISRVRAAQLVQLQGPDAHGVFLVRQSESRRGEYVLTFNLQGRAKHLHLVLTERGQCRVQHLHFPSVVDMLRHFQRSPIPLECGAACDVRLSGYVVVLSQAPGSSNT

N[C@@H](Cc1ccc(OP(=O)(O)O)cc1)C(=O)O [Phosphotyrosine, phosphotyrosine]
delta Tm (V374M LNK SH2 domain; replicate 1): 3.1 °C
delta Tm (V374M LNK SH2 domain; replicate 2): 3.2 °C
delta Tm (V374M LNK SH2 domain; replicate 3): 3.3 °C
delta Tm (V374M LNK SH2 domain; replicate 4): 3.2 °C
delta Tm (V374M LNK SH2 domain; replicate 5): 3.4 °C
Tm, plus phosphotyrosine (V374M LNK SH2 domain; replicate 1): 55 °C
Tm, plus phosphotyrosine (V374M LNK SH2 domain; replicate 2): 55.1 °C
Tm, plus phosphotyrosine (V374M LNK SH2 domain; replicate 3): 55.2 °C
Tm, plus phosphotyrosine (V374M LNK SH2 domain; replicate 4): 55.2 °C
Tm, plus phosphotyrosine (V374M LNK SH2 domain; replicate 5): 55.2 °C
delta Tm (R387H LNK SH2 domain; replicate 1): 3.9 °C
delta Tm (R387H LNK SH2 domain; replicate 2): 3.9 °C
delta Tm (R387H LNK SH2 domain; replicate 3): 3.6 °C
delta Tm (R387H LNK SH2 domain; replicate 4): 3.4 °C
delta Tm (R387H LNK SH2 domain; replicate 5): 3.5 °C
Tm, plus phosphotyrosine (R387H LNK SH2 domain; replicate 1): 55.2 °C
Tm, plus phosphotyrosine (R387H LNK SH2 domain; replicate 2): 55.2 °C
Tm, plus phosphotyrosine (R387H LNK SH2 domain; replicate 3): 54.8 °C
Tm, plus phosphotyrosine (R387H LNK SH2 domain; replicate 4): 54.9 °C
Tm, plus phosphotyrosine (R387H LNK SH2 domain; replicate 5): 55 °C
delta Tm (R387C LNK SH2 domain; replicate 1): 5.7 °C
delta Tm (R387C LNK SH2 domain; replicate 2): 6.5 °C
delta Tm (R387C LNK SH2 domain; replicate 3): 6.1 °C
delta Tm (R387C LNK SH2 domain; replicate 4): 6.2 °C
delta Tm (R387C LNK SH2 domain; replicate 5): 6.4 °C
Tm, plus phosphotyrosine (R387C LNK SH2 domain; replicate 1): 56.8 °C
Tm, plus phosphotyrosine (R387C LNK SH2 domain; replicate 2): 57.5 °C
Tm, plus phosphotyrosine (R387C LNK SH2 domain; replicate 3): 57.1 °C
Tm, plus phosphotyrosine (R387C LNK SH2 domain; replicate 4): 57.2 °C
Tm, plus phosphotyrosine (R387C LNK SH2 domain; replicate 5): 57.6 °C
delta Tm (WT LNK SH2 domain; replicate 1): 6.6 °C
delta Tm (WT LNK SH2 domain; replicate 2): 8.1 °C
delta Tm (WT LNK SH2 domain; replicate 3): 7.6 °C
delta Tm (WT LNK SH2 domain; replicate 4): 8.1 °C
Tm, plus phosphotyrosine (WT LNK SH2 domain; replicate 1): 61.1 °C
Tm, plus phosphotyrosine (WT LNK SH2 domain; replicate 2): 61.7 °C
Tm, plus phosphotyrosine (WT LNK SH2 domain; replicate 3): 61.9 °C
Tm, plus phosphotyrosine (WT LNK SH2 domain; replicate 4): 62.5 °C

O=P(O)(O)Oc1ccccc1 [Phenyl Phos, phenyl phosphate]
Tm (V374M LNK SH2 domain; replicate 1): 54.0 °C
Tm (V374M LNK SH2 domain; replicate 2): 54.3 °C
Tm (V374M LNK SH2 domain; replicate 3): 54.7 °C
Tm (R387H LNK SH2 domain; replicate 1): 55.7 °C
Tm (R387H LNK SH2 domain; replicate 2): 56.0 °C
Tm (R387H LNK SH2 domain; replicate 3): 56.2 °C
Tm (R387C LNK SH2 domain; replicate 1): 56.6 °C
Tm (R387C LNK SH2 domain; replicate 2): 54.9 °C
Tm (R387C LNK SH2 domain; replicate 3): 54.8 °C
Tm (WT LNK SH2 domain; replicate 1): 60.6 °C
Tm (WT LNK SH2 domain; replicate 2): 61.6 °C
Tm (WT LNK SH2 domain; replicate 3): 60.8 °C
